From patent US20260345595A1, “NOVEL FLUORENE DERIVATIVE COMPOUND AND USE THEREOF” (JD BIOSCIENCE INC., priority 2022, published 2026)

Columns and labels:
[1] = system: acute kidney ischemic reperfusion (IR) injury in C57BL6J mice; assay: Acute kidney ischemic reperfusion (IR) injury animal model; format: in vivo, mouse; settings: 4 μg/kg and 8 μg/kg, tail vein
Method: Vehicle and Compound 1 (4 μg/kg or 8 μg/kg) were administered to 8-week-old male C57BL6J mice via the tail vein 24 hours before, 1 hour before, and 12 hours after ischemic reperfusion (IR) surgery. The surgery was performed by blocking the artery leading to the kidney to induce ischemia for 37 minutes. The blocked artery was released, and 24 hours later, the mice were anesthetized and autopsied. Other part was used to synthesize cDNA, and a kidney damage marker, NGAL was identified by real-time PCR. And serum was separated from the blood, and creatinine, which is a kidney damage marker in the serum, was examined, and the results are shown in FIG. 3.

[2] = system: cerulein-induced acute pancreatitis in mice; assay: Cerulein-induced acute pancreatitis animal model; format: in vivo, mouse; settings: 5 μg/kg or 10 μg/kg, tail vein; versus Cerulein; FIG. 8
Method: Acute pancreatitis was induced by intraperitoneal administration of cerulein (50 μg/kg) dissolved in saline to 8-week-old male mice. Compound 1 was administered at a concentration of 5 μg/kg or 10 μg/kg into the tail vein 24 hours and 1 hour before cerulein administration, and cerulein was intraperitoneally administered six times at 1-hour intervals. 18 hours after the first cerulein administration, the mice were anesthetized, the serum was separated, and the amylase and lipase activities in the serum were measured, which are shown in FIG. 8.

[3] = system: bone marrow-derived dendritic cells (BMDCs); assay: IL-1β release (inflammasome formation) in LPS/ATP-stimulated bone marrow-derived dendritic cells, ELISA; format: cell-based, C57BL6 mice; settings: versus vehicle control
Method: Furthermore, to verify the anti-inflammatory effect at a cellular level, bone marrow cells of C57BL6 mice were treated with 20 ng/ml of GM-CSF and IL-4, and 6 days later, bone marrow-derived dendritic cells (BMDCs) were collected. The BMDCs were prepared at 1×10^6 cells/mL and stabilized for one day, and then subsequent experiments were conducted. The above dendritic cells were treated with 500 ng/ml of LPS for 3 hours to prime pro-IL1B, and then treated with Compound 1 (0 μM, 0.01 µM, 0.1 μM, 1 μM, and 10 μM) for 15 minutes. Next, 5 mM of ATP was treated, which induces inflammasome formation by converting pro-IL1B to IL-1B through pro-IL1B cleavage, and 30 minutes later, the concentration of IL-1B in the supernatant was measured by ELISA, and the results are shown in FIG. 10 and Table 3.

[4] = system: GvHD in vivo model in BALB/c mice; assay: Graft-versus-host disease (GvHD) animal model; set-up: species or system mouse; settings: for production of CD4+IFNg+T cells, mean value: spleen, day 14
Method: 5-week-old BALB/c male mice were acclimatized for 1 week and irradiated with 800 cGy of total body irradiation. Then, 5×10^6 bone marrow cells derived from C57BL/6J and 1×10^7 spleen cells were intravenously injected to establish a GvHD in vivo model (positive control). A syngeneic control group was established in the same manner as above, but BALB/c-derived bone marrow cells were selected as the injected bone marrow cells. Compound 1 Daily was established by daily oral gavage of 1 mg/kg of Compound 1 to the GvHD in vivo model. Compound 1 Initial only was established by orally administering 1 mg/kg of Compound 1 to the GvHD in vivo model only for 6 days after model induction. The therapeutic effect of Compound 1 was verified by measuring the change in body weight every 3 days for each control and experimental group established as above, and the results are shown in FIG. 11 and Table 4. On day 14, the production of CD4^+IFNg^+T cells, which is a major factor inducing GvHD, was measured in the spleens isolated from the mice, and the results are shown in FIG. 12 and Table 5.

Mfn2−/− MEF cells = assay: Mitochondrial oxygen consumption rate, Charcot-Marie-Tooth disease model; format: cell-based, mouse; settings: 1 μM, 24 hours, FIG. 13
Method: To verify the functional loss due to mutation of MFN2 present in the outer mitochondrial membrane, which is the main cause of Charcot-Marie-Tooth disease, the mitochondrial oxygen consumption rate (OCR) was measured. In detail, Mfn2^+/^+MEF cells (normal cells), which are mouse embryonic fibroblasts expressing Mfn2, and Mfn2/MEF cells not expressing Mfn2 were cultured at a density of 1×10^4 for 24 hours in a Seahorse […] culture dish using a DMEM medium supplemented with 10% FBS and penicillin/streptomycin. The cells were treated with DMSO as a vehicle and Compound 1 (1 μM) and cultured for another 24 hours. The mitochondrial oxygen consumption rate was measured using a Seahorse XFe96 analyzer (Agilent Technologies), and the results are shown in FIG. 13.

NCI-H295R cells = assay: Cortisol production, Cushing's syndrome cell model, ELISA; format: cell-based, human; settings: 0.1, 0.5 and 1 μM; 8-Br-cAMP 0.5 mM; FIG. 14
Method: NCI-H295R cells (ATCC #CRL-2128), which are a human adrenocortical carcinoma cell line, were seeded at a density of 2.5×10^5 cells/well in a 24-well plate. The cells were cultured for 48 hours, and then they were pretreated with Compound 1 (0.1 μM, 0.5 μM, and 1 μM) for 12 hours. Furthermore, to increase cortisol synthesis, the cells were treated with 8-bromoadenosine […] (8-Br-CAMP) at a concentration of 0.5 mM, and then re-treated with Compound 1, and allowed to react for 24 hours. After the reaction, the cell culture medium was collected, and the amount of cortisol produced in the cells was measured using an ELISA kit, and the results are shown in FIG. 14.

[5] = Growth inhibition of normal cells, Cell Counting Kit-8; format: cell-based, human (BJ); hamster (CHO); murine (Raw264.7); mouse (L929); settings: normal cells, concentration of up to less than 40 μM, 10% FBS, FIG. 15
Method: (§1) In order to verify the growth inhibitory effect of Compound 1 on various normal and cancer cell lines, 25 types of cell lines listed in Table 7 below were tested. In detail, each cell was seeded at a density of 2×10^4 cells/well in a 96-well plate and cultured for 24 hours, and then the medium was replaced with a medium comprising 0.5% (for cancer cells) or 10% (for normal cells) FBS, and Compound 1 was treated at various concentrations. 24 hours later, 10 μL of Cell Counting Kit-8 (Dojindo Molecular Technologies) was added, and 1 hour later, absorbance at 480 nm was measured using a microplate reader (TECAN SPARK), and the results are shown in FIGS. 15 to 21.

cancer cells = assay: Growth inhibition of cancer cells, Cell Counting Kit-8; format: cell-based; settings: 24 hours, 0.5% FBS; FIGS. 16 to 20
Method: as §1

[6] = versus vehicle-treated IR, FIG. 2

Q: What does the source list for `CC(C(=O)NNc1ccc(F)cc1)n1cc(-c2cc(F)cc3c2-c2ccccc2C3(O)C(F)(F)F)cn1` (centres unmarked) [Compound 1, 2-(4-(2-fluoro-9-hydroxy-9-(trifluoromethyl)-9H-fluoren-4-yl)-1H-pyrazol-1-yl)-N′-(4-fluorophenyl)propanehydrazide]?
A: NGAL RNA expression ([1]; kidney, real-time PCR, p<0.01 versus IR+Vehicle, FIG. 3): significantly reduced; serum creatinine ([1]; p<0.01 versus IR+Vehicle, FIG. 3): significantly reduced; apoptosis (TUNEL staining) of kidney tissue [1, 6]: significant reduction in the apoptosis; renal tubular tissue damage (H&E staining) [1, 6]: significant reduction in the renal tubular tissue damage; serum amylase activity [2]: decreased by administration of Compound 1 in a dose-dependent manner; serum lipase activity [2]: decreased by administration of Compound 1 in a dose-dependent manner; inhibition at 0.1 µM ([3]; Mus musculus, BMDC, 0.1 µM, read-out: inhibition of IL-1β expression): ~83.8%; inhibition at 10 µM ([3]; Mus musculus, BMDC, 10 µM, read-out: inhibition of IL-1β expression): ~53.8%; inhibition of IL-1β expression (in words) ([3]; FIG. 10): significantly inhibited; body weight recovery (in words) ([4]; Daily and Initial only, 1 mg/kg oral, versus control, FIG. 11): significantly recovered; production of allogeneic CD4+IFNg+T cells (in words) ([4]; Daily and Initial only, 1 mg/kg oral, versus control, FIG. 12): significantly reduced; production of CD4+IFNg+T cells, mean value ([4]; Daily, 1 mg/kg oral gavage): 10.28; production of CD4+IFNg+T cells, mean value ([4]; Initial only (6 days), 1 mg/kg oral): 13.04; mitochondrial oxygen consumption rate (OCR) (Mfn2−/− MEF cells): markedly restored to a level comparable to that of normal cells; cortisol production (NCI-H295R cells): significantly inhibited by the administration of Compound 1, and this inhibition showed a concentration-dependent tendency; viability at 24 h [5]: ≥ 70%; viability of cancer cells (in words) (cancer cells): decreased the viability of cancer cells in a concentration-dependent manner
